From patent US4078146A, “Phenoxy propanolamines” (priority 1972, dated 1978) come the findings set out here.

The structures appear in SMILES notation. Read-outs that look alike come from different tables or passages of the source.

In one assay the target is T1, β-receptors of the heart (Felis catus, UniProt Q9TST6).
T1 construct: Intravenously injected isoprenaline increased the heart rate and reduced the perfusion pressure; from tissue; host or cells: heart of the anaesthetized, reserpinized, vagotomized cat (in vivo)
Kind of assay: Intrinsic activity and β-blockade of heart rate response to isoprenaline in the reserpinized cat. The conditions noted are these: for ED50: read-out: β-blockade Heart rate ED50; for Emax: read-out: Intrinsic activity % of isoprenaline heart rate response. Type of assay: in vivo. Here is the method: Alprenolol was used as a reference substance.
(§1) Cats weighing between […] were anaesthetized with 30 mg/kg pentobarbital sodium i.p. The cats had been pretreated with reserpine, 5 mg/kg i.m. about 18 hours before the experiment. Bilateral vagotomy was performed before the start of the experiment.
The heart rate was recorded on an Offner cardiotachometer triggered by the EKG-complex. Mean intraarterial blood pressure was recorded from a carotid artery. The peripheral resistance was measured in one of the legs of the cat in the following way: The femoral artery was opened in the inguinal region and the leg was perfused by blood delivered through a sigma motor pump at constant rate. The flow resistance (the pressure) as recorded via a strain gauge transducer connected to the catheter distally to the pump. The paw was excluded from the circulation by a tight ligature around the ankle. […] An isoprenaline dose giving 70-80% of the maximal chronotropic response was determined. […] Ten minutes before each isoprenaline injection, the tested substances were administered intravenously for two minutes, starting with a dose of 0.01 mg/kg and increasing each subsequent dose fourfold. The intrinsic effects of the test substances were determined. The dose producing 50% blockade of the isoprenaline responses were evaluated from the plotted log dose-per cent blockade diagrams.

Assay [1] concerns the target T2, peripheral vascular β-receptors (Felis catus, UniProt Q9TST5).
T2 construct: from tissue; host or cells: vascular bed of the blood-perfused leg (paw excluded) of the anaesthetized, reserpinized cat (in vivo)
Kind of assay: Peripheral vascular β-blockade (peripheral vascular resistance, vasodilator response to isoprenaline) in the reserpinized cat. Type of assay: in vivo. The conditions noted are these: read-out: β-blockade Peripheral vascular resistance ED50. Here is the method: The compounds prepared according to examples 1-18 were evaluated for intrinsic activity and blocking effect on heart rate and for peripheral vasodilator response to isoprenaline in the cat. Alprenolol was used as a reference substance.
as §1
The heart rate was recorded on an Offner cardiotachometer triggered by the EKG-complex. Mean intraarterial blood pressure was recorded from a carotid artery. The peripheral resistance was measured in one of the legs of the cat in the following way: The femoral artery was opened in the inguinal region and the leg was perfused by blood delivered through a sigma motor pump at constant rate. The flow resistance (the pressure) as recorded via a strain gauge transducer connected to the catheter distally to the pump. The paw was excluded from the circulation by a tight ligature around the ankle. Intravenously injected isoprenaline increased the heart rate and reduced the perfusion pressure. An isoprenaline dose giving 70-80% of the maximal chronotropic response was determined. This dose (usually 0.1 μg/kg) was then repeated with 20 minute intervals. Ten minutes before each isoprenaline injection, the tested substances were administered intravenously for two minutes, starting with a dose of 0.01 mg/kg and increasing each subsequent dose fourfold. The intrinsic effects of the test substances were determined. The dose producing 50% blockade of the isoprenaline responses were evaluated from the plotted log dose-per cent blockade diagrams.

Where [2] appears, read: reserpinized cat, intravenous, 50% blockade of isoprenaline response (usually 0.1 μg/kg).

T2 sequence (Q9TST5 whole entry, the tested form may be a part): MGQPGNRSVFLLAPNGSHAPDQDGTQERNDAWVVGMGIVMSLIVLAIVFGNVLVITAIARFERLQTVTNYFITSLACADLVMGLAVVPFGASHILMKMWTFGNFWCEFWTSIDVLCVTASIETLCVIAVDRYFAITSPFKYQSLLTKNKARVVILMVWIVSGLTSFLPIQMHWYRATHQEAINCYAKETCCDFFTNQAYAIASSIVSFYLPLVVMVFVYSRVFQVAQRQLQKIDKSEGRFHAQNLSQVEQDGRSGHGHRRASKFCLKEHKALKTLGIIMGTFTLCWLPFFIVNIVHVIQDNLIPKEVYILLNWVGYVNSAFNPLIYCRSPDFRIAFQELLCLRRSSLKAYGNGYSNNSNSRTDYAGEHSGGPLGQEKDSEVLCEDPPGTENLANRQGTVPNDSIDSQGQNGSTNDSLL
T1 sequence (Q9TST6 whole entry, the tested form may be a part): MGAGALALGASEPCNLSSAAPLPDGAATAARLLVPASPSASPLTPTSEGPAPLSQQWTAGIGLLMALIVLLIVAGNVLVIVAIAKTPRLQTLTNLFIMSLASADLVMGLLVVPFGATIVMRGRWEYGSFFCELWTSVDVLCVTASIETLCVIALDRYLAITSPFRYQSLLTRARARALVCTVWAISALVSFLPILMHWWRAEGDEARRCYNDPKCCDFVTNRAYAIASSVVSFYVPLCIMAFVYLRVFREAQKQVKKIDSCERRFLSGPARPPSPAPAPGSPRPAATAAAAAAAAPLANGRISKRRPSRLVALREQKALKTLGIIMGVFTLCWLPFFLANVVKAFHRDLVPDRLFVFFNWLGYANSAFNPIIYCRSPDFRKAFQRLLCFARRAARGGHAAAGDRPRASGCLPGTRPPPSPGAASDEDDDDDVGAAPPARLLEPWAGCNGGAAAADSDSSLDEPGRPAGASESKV

For `CNC(=O)OCCc1ccc(OCC(O)CNC(C)C)cc1` (stereo not shown) [CH3 NHCOOC2 H4, H, 1-Isopropylamino-3-[4-(2-methylcarbamoyloxyethyl)-phenoxy]-propanol-2], the ED50 at β-receptors of the heart (setting [2]) was 0.4 mg/kg; in assay [1] (setting [2]) it was 2.4 mg/kg. Besides, the Emax at β-receptors of the heart (reserpinized cat, intravenous) turned out to be 0%.

For the molecule `CNC(=O)OCCOc1ccc(OCC(O)CNC(C)C)cc1` (stereo not shown) [CH3 NHCOOC2 H4 O, H, 1-isopropylamino-3-[4-(2-methylcarbamoyloxyethoxy)-phenoxy]-propanol-2], the median effective dose (ED50) at β-receptors of the heart (setting [2]) was 0.5 mg/kg; in assay [1] (setting [2]) it was above 8.5 mg/kg. For the same molecule, the Emax on β-receptors of the heart (reserpinized cat, intravenous) is 25%.

Turning to `CNC(=O)OCCc1ccc(OCC(O)CNC(C)C)c(Cl)c1` (stereo not shown) [CH3 NHCOOC2 H4, Cl, 1-Isopropylamino-3-[2-chloro-4-(2-methylcarbamoyloxyethyl)-phenoxy]-propanol-2], the values for the ED50 (at β-receptors of the heart (setting [2]); in assay [1] (setting [2])) were 0.3 mg/kg and 1.8 mg/kg, respectively. In addition, the Emax at β-receptors of the heart (reserpinized cat, intravenous) is 0%.

As for `CC(C)NCC(O)COc1ccc(OCCOC(N)=O)cc1` (stereo not shown) [H2 NCOOC2 H5 O, H, 1-Isopropylamino-3-[4-(2-carbamoyloxyethoxy)-phenoxy]-propanol-2], the 50% effective dose (ED50) on β-receptors of the heart (cat, iv) amounted to 0.4 mg/kg; in assay [1] (cat, iv), 8 mg/kg. For the same molecule, on β-receptors of the heart (iv), the Emax was 40%.

For `CC(C)NCC(O)COc1ccc(CCNC(N)=O)cc1` (stereo not shown) [H2 NCONHC2 H4, H], the ED50 at β-receptors of the heart (setting [2]) worked out at 0.4 mg/kg; in assay [1] (setting [2]), 14 mg/kg. The Emax on β-receptors of the heart (reserpinized cat, intravenous) stood at 0%.

Turning to `CC(C)NCC(O)COc1ccc(CCNC(N)=O)cc1Cl` (stereo not shown) [H2 NCONHC2 H4, Cl, 1-Isopropylamino-3-[2-chloro-4-(2-carbamoylaminoethyl)phenoxy]-propanol-2], the ED50 came to 0.4 mg/kg on β-receptors of the heart (setting [2]) and 2.6 mg/kg in assay [1] (setting [2]). Moreover, the Emax on β-receptors of the heart (reserpinized cat, intravenous) was determined as 0%.

In the case of `CC(C)NCC(O)COc1ccc(OCCOC(=O)N(C)C)cc1Cl` (stereo not shown) [(CH3)2 NCOOC2 H4 O, Cl, 1-Isopropylamino-3-[2-chloro-4-(2-dimethylcarbamoyloxyethoxy)-phenoxy]-propanol-2], the ED50 was found to be 0.1 mg/kg at β-receptors of the heart (setting [2]) and 1.7 mg/kg in assay [1] (setting [2]). Also, the Emax at β-receptors of the heart (reserpinized cat, intravenous) is 5%.

On to `C=CCc1ccccc1OCC(O)CNC(C)C` (stereo not shown) [alprenolol, Alprenolol, reference compound], for which the Emax at β-receptors of the heart (reserpinized cat, intravenous) worked out at 20%.

Usually ED50 stands for the dose at which the effect has come halfway, by size or by number of responders.
